Drawing on ChEMBL document CHEMBL2406920, “Synthesis, biological evaluation, X-ray molecular structure and molecular docking studies of RGD mimetics containing 6-amino-2,3-dihydroisoindolin-1-one fragment as ligands of integrin αIIbβ₃” (Bioorg Med Chem, 2013), this text covers IC50 for 16 molecules.

The subject of the first test is Platelet. The test is described as follows: Inhibition of ADP-induced human platelet aggregation in platelet-rich plasma by Born's method. In kind it is functional.
As usually defined, the IC50 is the concentration that gives 50% inhibition. `O=C(O)CCCN1Cc2ccc(NC(=O)CC3CCNCC3)cc2C1=O` yielded an IC50 of 1800 nM. The molecule `O=C(O)CN1Cc2ccc(NC(=O)CC3CCNCC3)cc2C1=O` gave an IC50 of 51000 nM. Regarding `O=C(O)CN1Cc2ccc(NC(=O)c3ccc(N4CCNCC4)cc3)cc2C1=O`, the IC50 was 3300 nM. This IC50 lies about 15-fold lower than the previous one. In turn, `O=C(O)CCN1Cc2ccc(NC(=O)CC3CCNCC3)cc2C1=O` showed an IC50 of 7400 nM. Against the preceding molecule, the IC50 is about 2.2-fold higher. The molecule `O=C(O)CCN1Cc2ccc(NC(=O)c3cccc(N4CCNCC4)c3)cc2C1=O` registered an IC50 of 2700 nM.

Molecule `CC(CC(=O)O)N1Cc2ccc(NC(=O)c3cccc(N4CCNCC4)c3)cc2C1=O` (racemic) yielded an IC50 of 62000 nM. The molecule `CC(CC(=O)O)N1Cc2ccc(NC(=O)CC3CCNCC3)cc2C1=O` (racemic) yielded an IC50 of 2700 nM. This IC50 lies about 23-fold lower than the previous one.

In the case of `CCCCS(=O)(=O)N[C@@H](Cc1ccc(OCCCCC2CCNCC2)cc1)C(=O)O` [TIROFIBAN], inhibition was half-maximal at 32 nM (IC50).

The next test deals with Integrin alpha-IIb/beta-3 (Homo sapiens, UniProt P05106+P08514). The test is described as follows: Inhibition of FITC-labeled fibrinogen binding to integrin alpha2bbeta3 receptor in human platelets by flow cytometry. Background: Flow cytometry measures light scatter and fluorescence of single cells or particles in a stream.
Sequence of Integrin alpha-IIb/beta-3 (P05106 27-788 limits assumed): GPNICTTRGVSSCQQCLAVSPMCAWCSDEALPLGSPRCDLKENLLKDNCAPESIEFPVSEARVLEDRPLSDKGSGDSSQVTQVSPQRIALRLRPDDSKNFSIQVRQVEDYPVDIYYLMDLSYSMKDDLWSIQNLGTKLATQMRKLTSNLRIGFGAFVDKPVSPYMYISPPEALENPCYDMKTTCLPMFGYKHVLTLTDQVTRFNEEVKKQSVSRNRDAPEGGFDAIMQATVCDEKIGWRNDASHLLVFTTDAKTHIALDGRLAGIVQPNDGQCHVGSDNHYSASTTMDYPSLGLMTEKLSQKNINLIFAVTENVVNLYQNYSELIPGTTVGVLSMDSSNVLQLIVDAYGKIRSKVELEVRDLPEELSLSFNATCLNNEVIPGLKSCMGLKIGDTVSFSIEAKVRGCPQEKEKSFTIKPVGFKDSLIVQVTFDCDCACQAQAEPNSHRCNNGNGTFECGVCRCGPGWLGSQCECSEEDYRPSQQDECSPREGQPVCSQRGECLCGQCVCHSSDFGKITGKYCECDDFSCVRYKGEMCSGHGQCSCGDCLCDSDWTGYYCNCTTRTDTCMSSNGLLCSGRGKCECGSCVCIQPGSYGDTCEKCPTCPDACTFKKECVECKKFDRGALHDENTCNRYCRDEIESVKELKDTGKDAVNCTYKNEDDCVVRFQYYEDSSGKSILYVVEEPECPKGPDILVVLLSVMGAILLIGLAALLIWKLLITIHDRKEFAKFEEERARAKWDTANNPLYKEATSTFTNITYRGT
Sequence of Integrin alpha-IIb/beta-3 (P08514 32-887 limits assumed): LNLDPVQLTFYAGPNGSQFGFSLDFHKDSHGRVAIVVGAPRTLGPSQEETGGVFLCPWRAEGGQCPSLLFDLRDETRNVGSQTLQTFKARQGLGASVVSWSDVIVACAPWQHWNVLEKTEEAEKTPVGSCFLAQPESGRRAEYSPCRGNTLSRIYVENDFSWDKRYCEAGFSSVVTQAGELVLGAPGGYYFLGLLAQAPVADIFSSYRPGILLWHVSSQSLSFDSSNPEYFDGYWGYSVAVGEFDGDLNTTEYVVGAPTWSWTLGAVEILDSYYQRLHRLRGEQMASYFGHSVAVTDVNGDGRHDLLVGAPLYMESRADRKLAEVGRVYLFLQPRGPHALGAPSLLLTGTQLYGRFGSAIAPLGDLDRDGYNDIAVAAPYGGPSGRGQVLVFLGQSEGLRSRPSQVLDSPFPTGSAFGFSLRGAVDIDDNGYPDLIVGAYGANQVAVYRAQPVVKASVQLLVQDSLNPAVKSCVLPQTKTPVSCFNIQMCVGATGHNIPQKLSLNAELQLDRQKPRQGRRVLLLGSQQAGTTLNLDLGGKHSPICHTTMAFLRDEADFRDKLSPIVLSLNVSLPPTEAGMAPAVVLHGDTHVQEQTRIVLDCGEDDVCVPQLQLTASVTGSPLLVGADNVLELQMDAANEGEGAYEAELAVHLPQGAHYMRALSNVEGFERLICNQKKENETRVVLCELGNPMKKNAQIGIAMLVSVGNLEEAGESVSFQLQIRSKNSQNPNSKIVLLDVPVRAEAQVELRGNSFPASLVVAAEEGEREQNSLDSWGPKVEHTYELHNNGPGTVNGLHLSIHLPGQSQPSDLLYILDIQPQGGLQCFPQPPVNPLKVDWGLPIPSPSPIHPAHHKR
Sequence of Integrin alpha-IIb/beta-3 (P08514 891-1039 limits assumed): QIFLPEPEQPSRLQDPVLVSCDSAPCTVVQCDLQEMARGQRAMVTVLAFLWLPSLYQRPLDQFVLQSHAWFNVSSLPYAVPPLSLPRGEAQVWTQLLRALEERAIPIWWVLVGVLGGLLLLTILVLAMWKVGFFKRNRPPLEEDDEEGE
With `O=C(O)CN1Cc2ccc(NC(=O)c3ccc(C4CCNCC4)cc3)cc2C1=O`, the IC50 worked out at 270 nM. As for `O=C(O)CN1Cc2ccc(NC(=O)c3ccc4c(c3)CNCC4)cc2C1=O`, the IC50 turned out to be 1200 nM. `O=C(O)CCN1Cc2ccc(NC(=O)CCCC3CCNCC3)cc2C1=O`: the IC50 turned out to be 5.5 nM. `O=C(O)CCN1Cc2ccc(NC(=O)c3ccc(C4CCNCC4)cc3)cc2C1=O`: the IC50 amounted to 6.8 nM.

In turn, `O=C(O)CCN1Cc2ccc(NC(=O)c3ccc4c(c3)CNCC4)cc2C1=O` yielded an IC50 of 6.5 nM. This IC50 and that of the molecule before are within 1.5-fold of each other. In turn, `CC(CC(=O)O)N1Cc2ccc(NC(=O)CCCC3CCNCC3)cc2C1=O` (racemic) came in with an IC50 of 350 nM. As to `CC(CC(=O)O)N1Cc2ccc(NC(=O)c3ccc(N4CCNCC4)cc3)cc2C1=O` (racemic), the IC50 is 37 nM. Molecule `CC(CC(=O)O)N1Cc2ccc(NC(=O)c3ccc4c(c3)CNCC4)cc2C1=O` (racemic) returned an IC50 of 6.5 nM.
